Laboratory results as given in US10513534B2, “2′-chloro nucleoside analogs for HCV infection” (priority 2012, dated 2019).
Read-outs that look alike come from different tables or passages of the source.

Tests used:
[1] = Cytotoxicity evaluation, CellTiter-Blue Cell Viability Assay; details: human
HCV genotype 1b replicon = assay: HCV replicon assay (Zluc luciferase); assay type: cell-based; details: read-out: HCV Replicon EC50
Method in brief: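 Zluc Huh-7 cells with HCV genotype 1b replicon and luciferase reporter treated with 5-fold dilutions (100 μM to 0.0000512 μM final) in duplicate, or at 1 and 10 μM. Luminescence read with ONE-glo; EC50 from dose-response fits, or % inhibition at the fixed concentrations.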

fresh human hepatocytes = assay: Release of active metabolite in fresh human hepatocytes; assay type: in vitro ADME; parameters: key to FHH TP (6 hr): + ≤ 15; 15 < ++ ≤ 50; 50 < +++ ≤ 100; 100 < ++++; BLD = below limit of detection; details: 10 μM
Method: (§1) Plates of fresh human and mouse hepatocytes were obtained on ice. The medium was removed and replaced with hepatocyte culture medium (William's E supplemented with penicillin-streptomycin, 1% L-glutamine, 1% insulin-transferrin-selenium and 0.1 μM Dexamethasone (Invitrogen) or with Invitro GRO HI medium complemented with Torpedo antibiotics (Celsis)). Cells were left overnight in an incubator at 37° C. to acclimatize to culture and the medium.
(§2) Hepatocyte incubations were conducted at a final volume of 0.5 mL hepatocyte culture medium/well (0.8 million cells/well for human and 0.5 million cells/well for mouse; 12 well plate no overlay, collagen coat). Culture medium from overnight incubation of cells was removed and replaced with fresh medium, pre-warmed to 37° C., containing 10 μM of test compound from a stock solution in DMSO (final DMSO concentration was 0.1%). At each specific time point, incubation medium was removed and cell monolayers were carefully washed two times with ice-cold PBS. Following the last wash, all PBS was carefully removed and 1.0 mL of extraction solution (ice-cold 70% methanol/30% water) added. Cells were scraped off and suspended in the extraction solution, transferred to 2 mL polypropylene microfuge tubes and intracellular contents extracted overnight at −20° C.
(§3) After the overnight treatment the cellular extracts were prepared by centrifugation at 16,000×g for 10 min to remove cellular debris. The remaining sample was then dried using a refrigerated centrivap concentrator. Dry extracts were reconstituted in 1000 μL of HPLC-grade water and centrifuged at 16,000×g for 10 min. Aliquots (100 μL each) of the supernatant were transferred into a 96 well plate and internal standard (4 ng/mL final concentration) was added as the internal standard (IS) for LC-MS/MS analysis.
(§4) The incubation time points were 6, 24 and 48 hours for human hepatocytes and 1, 4, 8, 12 and 24 hours for mouse hepatocytes.

[2] = Stability in simulated intestinal fluid; assay type: in vitro ADME; details: simulated intestinal fluid with pancreatin, 100 μM, 2 hours, 37° C.
Method: (§5) Stability in Simulated Gastric and Intestinal Fluids: Simulated gastric and intestinal fluids containing pepsin and pancreatin respectively were prepared according to the U.S. Pharmacopoeia USP291 procedure(www.pharmacopeia.cn/v29240/usp29nf24s0_ris1s126.html). Each test compound (final concentration 100 μM) was incubated in duplicate in the appropriate fluid for 2 hours at 37° C. The samples were quenched with […] cold acetonitrile, vortexed for 30 seconds and then centrifuged at 16100×g for 10 min. The supernatants were analyzed by HPLC on a C-18 column with UV detection at 252 nm. The time zero samples were prepared by adding SGF or SIF fluid to the quenching solvent followed by the test compound. Stability of the compound was determined by peak area of the test compound after incubation and calculated as percent of the peak area observed at time zero.

[3] = Plasma prodrug and nucleoside pharmacokinetics after single oral dose in cynomolgus monkeys; assay type: in vivo; details: cynomolgus monkey, plasma, single oral 10 mg/kg
Method: (§6) For each compound, a single oral dose at 10 mg/kg in PEG 200 (dose volume 3 mL/kg) was administered to cynomolgus monkeys. Untreated animals were used for the collection of control liver. Plasma samples were collected at 0.5, 1, 2, 4, 6, 8, 12 and 24 hours for compound 37, diastereomer 2.
Plasma samples were analyzed for the prodrug and nucleoside by LC-MS/MS. For protein precipitation and extraction, each plasma sample (50 μL) was treated with 500 μL of 0.2% formic acid in acetonitrile and 20 μL of an appropriate internal standard working solution. After vortexing and centrifugation, 500 µL of the sample extracts were transferred to a new plate, dried under N2 at ˜28° C. and reconstituted with 75 μL of 0.2% FA in water. The extracts were chromatographed on an Aquasil C18 column using a gradient system of 0.2% formic acid in water and acetonitrile. The analytes were detected and quantified by tandem mass spectrometry in positive ion mode on an MDS Sciex API4000 equipped with a Turbo Ionspray® interface.

Zluc cells = assay: Cytotoxicity evaluation, CellTiter-Blue Cell Viability Assay; details: Zluc cells, CellTiter-Blue
[4] = Plasma nucleoside pharmacokinetics after single oral dose in CD-1 mice; assay type: in vivo; details: single oral dose 10 mg/kg in PEG 200
Method in brief: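 Mouse plasma was extracted by acetonitrile/0.2% formic acid protein precipitation using 2′-MeG-D3 or tiapride as internal standard. Nucleoside was quantified by positive-ion LC-MS/MS after C18 gradient separation. Calibration spanned 0.500 (LLOQ) to 200 ng/mL.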

[5] = Liver triphosphate pharmacokinetics after single oral dose in cynomolgus monkeys; assay type: in vivo; details: normalized to 1 μmol/kg dose
Method: as §6
Liver samples were analyzed for the relevant nucleoside triphosphate by LC-MS/MS. […] Appropriate internal standard solution was added to the homogenate followed by neutralization with 20% ammonium hydroxide solution and addition of 500 μL 1% formic acid. The tissue samples were extracted by weak anion exchange solid phase extraction (SPE). Post extraction, the eluates were evaporated under nitrogen, followed by reconstitution before injection onto the LC-MS/MS system.

[6] = Stability in simulated gastric fluid; assay type: in vitro ADME; details: simulated gastric fluid with pepsin, 100 μM, 2 hours, 37° C.
Method: as §5

fresh mouse hepatocytes = assay: Release of active metabolite in fresh mouse hepatocytes; assay type: in vitro ADME; details: 10 μM
Method: as §1, §2, §3, §4

Row | Compound | CC50 [1] | EC50 (HCV genotype 1b replicon; Hepatitis C virus, 72 h) | FHH TP AUC (fresh human hepatocytes) | FHH TP Cmax (fresh human hepatocytes) | FHH TP (6 hr) (fresh human hepatocytes; 6 hr) | FHH TP (24 hr) (fresh human hepatocytes; 24 hr) | FHH TP (48 hr) (fresh human hepatocytes; 48 hr) | SIF stability (percent remaining) [2] | Tmax [3] | AUC(0-t) ([3]; normalized to 1 μmol/kg dose, read-out: Plasma prodrug AUC0-24) | Cmax ([3]; normalized to 1 μmol/kg dose, read-out: Plasma prodrug Cmax) | CC50 (Zluc cells) | Ms Plasma nucleoside Cmax [4] | Nucleoside triphosphate in Liver C6 ([5]; 6 hours post dose, 10 mg/kg oral) | Nucleoside triphosphate in Liver AUC0-24 ([5]; single oral 10 mg/kg) | Nucleoside triphosphate in Liver Cmax ([5]; single oral 10 mg/kg) | EC50 (HCV genotype 1b replicon; Zluc cells, 72 hours) | SGF stability (percent remaining) [6] | MsH AUC (fresh mouse hepatocytes) | MsH Cmax (fresh mouse hepatocytes)
1 | CCOC(=O)COP(=O)(OC[C@H]1O[C@@H](n2ccc(=O)[nH]c2=O)[C@](C)(Cl)[C@@H]1O)Oc1ccccc1 (mixture of isomers) [Compound 72 Mixture of P-Diastereoisomers] | > 50 µM | > 10 µM | – | – | – | – | – | – | – | – | – | – | – | – | – | – | – | – | – | –
2 | CC(C)OP1(=O)OC[C@H]2O[C@@H](n3ccc(=O)[nH]c3=O)[C@](C)(Cl)[C@@H]2O1 (single isomer, unassigned) [Compound 37 Diastereomer 2] | – | – | +++ (500 < +++ ≤ 1500) | ++ (15 < ++ ≤ 50) | BLD^b | ++ (15 < ++ ≤ 50) | ++ (15 < ++ ≤ 50) | ++++ (75% < ++++) | 4 h | > 1.5 µM·h | > 100 nM | > 50 µM | +++ (50 < +++ ≤ 100) | ++++ (100 < ++++) | ++++ (1500 < ++++) | ++++ (100 < ++++) | 1 to 10 µM | ++++ (75% < ++++) | ++++ (1500 < ++++) | ++++ (100 < ++++)
3 | CCOC(=O)COP(=O)(OC[C@H]1O[C@@H](n2ccc(=O)[nH]c2=O)[C@](C)(Cl)[C@@H]1O)Oc1ccccc1 (single isomer, unassigned) [Compound 72 Diastereomer 1] | > 50 µM | > 10 µM | – | – | – | – | – | – | – | – | – | – | – | – | – | – | – | – | – | –
